The source of these data is US20140023611A1 (priority 2010, published 2014).

Each structure is given as a SMILES string. Some results are limits rather than exact numbers.

The nature of data set [1]: Stability of compounds in simulated gastric fluid (SGF). Conditions: simulated gastric fluid (3 mg/mL pepsin), incubation time 6 hr, relative to t=0. It is filed as in vitro ADME. The method in brief: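 Compounds at […] were incubated 3 or 6 hr in USP simulated gastric fluid with 3 mg/mL pepsin or simulated intestinal fluid with 3 mg/mL pancreatin. Remaining compound was quantified by HPLC-UV or HPLC-MS peak area % and reported as percent of the t=0 level in the same medium.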

Data set [2] concerns Uptake of Phosphorus from the Intestine. The data set is described as follows: In vivo co-dosing in chow (urine P out / P consumed). Conditions: Rattus norvegicus, feed or water, rats, compound in chow, read-out: Mean % inhibition Urine Pout/P consumed; for inhibition in vivo at 100 mg/kg/day: mean drug dose 100 mg/kg/day; for inhibition in vivo at 120 mg/kg/day: mean drug dose 120 mg/kg/day; for inhibition in vivo at 50 mg/kg/day: mean drug dose 50 mg/kg/day. The method in brief:
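Male 7-week-old rats were fed a synthetic diet (0.6% P, 0.6% Ca) for 4 days, then housed in metabolic cages with compound in chow at 1.3 mg/g (nominal 100 mg/kg/day). Urinary P was measured by ion chromatography over 24–96 h and related to dietary P consumed. Percentage inhibition was calculated against no-drug controls.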

For `O=C(O)c1cccc(SCc2cccc(C(=O)Nc3ccc(N4CCCCC4)cc3-c3cc(C(=O)NCc4cccc(C(F)(F)F)c4)ccn3)c2)c1` [Example 8.1, 3-(3-(4-(piperidin-1-yl)-2-(4-(3-(trifluoromethyl)benzylcarbamoyl)pyridin-2-yl)phenylcarbamoyl)benzylthio)benzoic acid], the “% remaining, SGF” value in data set [1] is listed as 60-80%. Regarding `O=C(NCc1cccc(C(F)(F)F)c1)c1ccnc(-c2cc(N3CCCCC3)ccc2NC(=O)c2cccc(CSc3ccc(C(=O)O)c(Br)c3)c2)c1` [Example 8.21], the “% remaining, SGF” value in data set [1] is >80%. As for `CN(CCOCCOCCOCCC(=O)O)C(=O)Cc1cccc(SCc2cccc(C(=O)Nc3ccc(N4CCCCC4)cc3-c3cc(C(=O)NCc4cccc(C(F)(F)F)c4)ccn3)c2)c1` [Example 138], the “% remaining, SGF” value in data set [1] was >80%. On to `O=C(O)CCOCCOCCOCCOCCSCc1cccc(C(=O)Nc2ccc(N3CCCCC3)cc2-c2cc(C(=O)N[C@H]3CCCc4ccccc43)ccn2)c1` [Example 142, 1-(3-{[4-(piperidin-1-yl)-2-(4-{[(1S)-1,2,3,4-tetrahydronaphthalen-1-yl]carbamoyl}pyridin-2-yl)phenyl]carbamoyl}phenyl)-5,8,11,14-tetraoxa-2-thiaheptadecan-17-oic acid], for which, in data set [2], the inhibition in vivo at 100 mg/kg/day was ≤ 10%. Also, the “% remaining, SGF” value in data set [1] was >80%. As for `CCN(CC)c1ccc(NC(=O)c2cccc(CSc3cccc(CC(=O)N(C)CCOCCOCCOCCC(=O)O)c3)c2)c(-c2cc(C(=O)NCc3cccc(C(F)(F)F)c3)ccn2)c1` [Example 144, 3-(2-(2-(2-(2-(3-(3-(4-(diethylamino)-2-(4-(3-(trifluoromethyl)benzylcarbamoyl)pyridin-2-yl)phenylcarbamoyl)benzylthio)phenyl)-N-methylacetamido)ethoxy)ethoxy)ethoxy)propanoic acid], the inhibition in vivo at 100 mg/kg/day in data set [2] is ≤ 10%. Also, the “% remaining, SGF” value in data set [1] is given as >80%. Consider `CCN(CC)c1ccc(NC(=O)c2cccc(CSCCOCCOCCOCCOCCOCCOCCOCCOCCC(=O)O)c2)c(-c2cc(C(=O)N[C@H]3CCCc4ccccc43)ccn2)c1` [Example 161, (S)-1-(3-(4-(diethylamino)-2-(4-(1,2,3,4-tetrahydronaphthalen-1-ylcarbamoyl)pyridin-2-yl)phenylcarbamoyl)phenyl)-5,8,11,14,17,20,23,26-octaoxa-2-thianonacosan-29-oic acid], for which the inhibition in vivo at 120 mg/kg/day in data set [2] is ≤ 10%. Besides, in data set [1], the “% remaining, SGF” value is recorded as >80%.

As for `CCN(CC)c1ccc(NC(=O)c2cccc(CSCCOCCOCCOCCOCCC(=O)O)c2)c(-c2cc(C(=O)NCc3cccc(C(F)(F)F)c3)ccn2)c1` [Example 162, 1-(3-(4-(diethylamino)-2-(4-(3-(trifluoromethyl)benzylcarbamoyl)pyridin-2-yl)phenylcarbamoyl)phenyl)-5,8,11,14-tetraoxa-2-thiaheptadecan-17-oic acid], the inhibition in vivo at 100 mg/kg/day in data set [2] is 10 to 30%. Also, the “% remaining, SGF” value in data set [1] is on record as >80%. Take `CCN(CC)c1ccc(NC(=O)c2cccc(CSCCOCCOCCOCCOCCOCCOCCOCCOCCC(=O)O)c2)c(-c2cc(C(=O)NCc3cccc(C(F)(F)F)c3)ccn2)c1` [Example 166, 1-(3-(4-(diethylamino)-2-(4-(3-(trifluoromethyl)benzylcarbamoyl)pyridin-2-yl)phenylcarbamoyl)phenyl)-5,8,11,14,17,20,23,26-octaoxa-2-thianonacosan-29-oic acid]: the inhibition in vivo at 120 mg/kg/day in data set [2] was in the range of 10 to 30%. Moreover, in data set [1], the “% remaining, SGF” value is listed as >80%.

As for `O=C(O)CCOCCOCCOCCNC(=O)c1cccc2c1ccn2Cc1cccc(C(=O)Nc2ccc(N3CCCCC3)cc2-c2cc(C(=O)N[C@H]3CCCc4ccccc43)ccn2)c1` [Example 181, (S)-1-oxo-1-(1-(3-(4-(piperidin-1-yl)-2-(4-(1,2,3,4-tetrahydronaphthalen-1-ylcarbamoyl)pyridin-2-yl)phenylcarbamoyl)benzyl)-1H-indol-4-yl)-5,8,11-trioxa-2-azatetradecan-14-oic acid], in data set [2], the inhibition in vivo at 120 mg/kg/day is ≤ 10%. Moreover, the “% remaining, SGF” value in data set [1] was >80%.

For `CCN(CC)c1ccc(NC(=O)c2cccc(C(=O)N(C)CCOCCOCCOCCC(=O)O)c2)c(-c2cc(C(=O)NCc3cccc(C(F)(F)F)c3)ccn2)c1` [Example 188, 1-(3-((4-(diethylamino)-2-(4-((3-(trifluoromethyl)benzyl)carbamoyl)pyridin-2-yl)phenyl)carbamoyl)phenyl)-2-methyl-1-oxo-5,8,11-trioxa-2-azatetradecan-14-oic acid], the inhibition in vivo at 110 mg/kg/day in data set [2] (mean drug dose 110 mg/kg/day) lay within 10 to 30%. Consider `CCCN(CCC)c1ccc(NC(=O)c2cccc(COCCOCCOCCOCCOCCOCCOCCOCCOC)c2)c(-c2cc(C(=O)NCc3cccc(C(F)(F)F)c3)ccn2)c1` [Example 200, 2-(2-(3-(2,5,8,11,14,17,20,23,26-nonaoxaheptacosyl)benzamido)-5-(dipropylamino)phenyl)-N-(3-(trifluoromethyl)benzyl)isonicotinamide], for which the inhibition in vivo at 100 mg/kg/day in data set [2] lay in the range of 10 to 30%. Besides, in data set [1], the “% remaining, SGF” value is reported as >80%. Consider `CCN(CC)c1ccc(NC(=O)c2cccc(CCCOCCOCCOCCOCCC(=O)O)c2)c(-c2cc(C(=O)NCc3cccc(C(F)(F)F)c3)ccn2)c1` [Example 251, 16-(3-(4-(diethylamino)-2-(4-(3-(trifluoromethyl)benzylcarbamoyl)pyridin-2-yl)phenylcarbamoyl)phenyl)-4,7,10,13-tetraoxahexadecan-1-oic acid], for which the inhibition in vivo at 50 mg/kg/day in data set [2] is ≤ 10%. In addition, in data set [1], the “% remaining, SGF” value is given as >80%.

As to `CCN(CC)c1ccc(NC(=O)c2cccc(CCCOCCOCCOCCOCCNS(=O)(=O)c3ccc(C(=O)N(CCOC)CCOCCOCCOCCOCCOCCOCCOC)cc3)c2)c(-c2cc(C(=O)NCc3cccc(C(F)(F)F)c3)ccn2)c1` [Example 272, 2-(2-(3-(1-(4-(2,5,8,11,14,17,20-heptaoxadocosan-22-yl(2-methoxyethyl)carbamoyl)phenylsulfonamido)-3,6,9,12-tetraoxapentadecan-15-yl)benzamido)-5-(diethylamino)phenyl)-N-(3-(trifluoromethyl)benzyl)isonicotinamide], the inhibition in vivo at 50 mg/kg/day in data set [2] was ≤ 10%.

`CCN(CC)c1ccc(NC(=O)c2cccc(CCCOCCOCCOCCOCCOCCOCCOCCOCCOCCC(=O)O)c2)c(-c2cc(C(=O)NCc3cccc(C(F)(F)F)c3)ccn2)c1` [Example 298, 31-(3-(4-(diethylamino)-2-(4-(3-(trifluoromethyl)benzylcarbamoyl)pyridin-2-yl)phenylcarbamoyl)phenyl)-4,7,10,13,16,19,22,25,28-nonaoxahentriacontan-1-oic acid]: the inhibition in vivo at 50 mg/kg/day in data set [2] is 10 to 30%. For the molecule `CCN(CC)c1ccc(NC(=O)c2cccc(CCCOCCOCCOCCOCCOCCOCCC(=O)O)c2)c(-c2cc(C(=O)NCc3cccc(C(F)(F)F)c3)ccn2)c1` [Example 299, 22-(3-(4-(diethylamino)-2-(4-(3-(trifluoromethyl)benzylcarbamoyl)pyridin-2-yl)phenylcarbamoyl)phenyl)-4,7,10,13,16,19-hexaoxadocosan-1-oic acid], the inhibition in vivo at 50 mg/kg/day in data set [2] is 10 to 30%. With `CCN(CC)c1ccc(NC(=O)c2cccc(CCCOCCOCCOCCOCCOCCC(=O)O)c2)c(-c2cc(C(=O)NCc3cccc(C(F)(F)F)c3)ccn2)c1` [Example 300, 19-(3-(4-(diethylamino)-2-(4-(3-(trifluoromethyl)benzylcarbamoyl)pyridin-2-yl)phenylcarbamoyl)phenyl)-4,7,10,13,16-pentaoxanonadecan-1-oic acid], in data set [2], the inhibition in vivo at 50 mg/kg/day was ≤ 10%.
